Like-named read-outs stand apart in the source and are kept apart here. Each block holds one compound with its values, some of them ahead of it.
How the values were obtained:
[1] = test system: rat peritoneal mast cells; assay: Inhibition of compound 48/80-induced histamine release from rat peritoneal mast cells; type: cell-based; settings: Mast cell
Method: The %inhibition of hesperetin 3′-β-glucoside (9) and hesperetin 7-β-glucoside (10) was higher than that of hesperetin (8). […] The inhibitory activity toward histamine release of hesperetin 7-β-gentiobioside (12) was stronger than hesperetin diglucoside 11. The anti-allergic activities were examined at pH 7.4 and 37 °C according to the reported methods. The pH and temperature of the reaction mixture may have an effect on anti-allergic activities. Effects of pH and temperature on anti-allergic activities of the obtained glycosides should be investigated and reported on in the near future.
The effects of daidzein, α-tocopherol, hesperetin, and their glycosides on compound 48/80-induced histamine release from rat peritoneal mast cells were examined as follows. Peritoneal mast cells were collected from the abdominal cavities of rats (Male Wistar rats, Nippon SLC) and purified to a level higher than 95%. The purified mast cells were suspended in a physiological buffered solution (PBS) containing 145 mM NaCl, 2.7 mM KCl, 1.0 mM CaCl2, 5.6 mM glucose, and 20 mM 4-(2-hydroxyethyl)-1-piperazineethanesulfonic acid (HEPES) (pH 7.4) to give approximately 10^4 mast cells/mL. Cell viability was always greater than 90% as judged by the trypan blue exclusion test. Mast cells were preincubated with the test compound (1 μM) for 15 min at 37 °C, and subsequently exposed to compound 48/80 at 0.35 μg/mL. Histamine release was determined by a fluorometric assay, and was expressed as a percentage of total histamine.

[2] = molecular target: Mushroom tyrosinase (EC 1.14.18.1); assay: Tyrosinase assay (dopachrome formation at 475 nm); type: biochemical; settings: L-DOPA or L-tyrosine as substrate, pH 6.8, 30 °C, mean ± standard deviation from triplicate experiments, read-out: Tyrosinase Inhibitory Activity IC50
Method: Mushroom tyrosinase (EC 1.14.18.1) (Sigma-Aldrich Chemical Co., St. Louis, MO, USA) was used for the tyrosinase assay, with either L-DOPA or L-tyrosine as a substrate. In spectrophotometric experiments, enzyme activity was taken as the initial velocity (Vi) monitored by observing dopachrome formation at 475 nm with a UV spectrophotometer at 30 °C. All samples were dissolved in ethanol at 10 mM. First, 200 μL of a 2.7 mM L-tyrosine or 5.4 mM L-DOPA aqueous solution was mixed with 2687 μL of 0.25 M phosphate buffer (pH 6.8). Next, 100 μL of the sample solution and 13 μL of the same phosphate buffer solution containing mushroom tyrosinase (144 units) were added to the mixture.

[3] = test compound 1 μM, preincubated 15 min at 37 °C, pH 7.4, compound 48/80 at 0.35 μg/mL, Male Wistar rat peritoneal mast cells, read-out: Histamine Release-Inhibiting Activity / %inhibition
[4] = Rattus norvegicus, pH 7.4, read-out: Histamine Release-Inhibiting Activity / %inhibition

Structure (SMILES): O=c1c(-c2ccc(O)cc2)coc2cc(OC3OC(CO)C(O)C(O)C3O)ccc12 (stereo not drawn) [Compound 2, daidzein 7-β-glucoside]
inhibition at 1 µM [1, 4]: 62% | IC50 [2]: 303 ± 45 µM

Structure (SMILES): O=c1c(-c2ccc(O)cc2)coc2cc(O[C@@H]3O[C@H](CO)[C@H](O)[C@H](O)[C@H]3O)ccc12 [Compound 5, daidzein 7-β-galactoside]
inhibition at 1 µM [1, 4]: 76% | IC50 [2]: 102 ± 39 µM

Structure (SMILES): Cc1c(C)c2c(c(C)c1O[C@@H]1O[C@H](CO)[C@H](O)[C@H](O)[C@H]1O)CC[C@@](C)(CCC[C@H](C)CCC[C@H](C)CCCC(C)C)O2 [Compound 7, α-tocopherol 6-β-galactoside]
inhibition at 1 µM [1, 3]: 82% | IC50 [2]: 54 ± 25 µM

Structure (SMILES): COc1ccc(C2CC(=O)c3c(O)cc(OC4OC(CO)C(O)C(O)C4O)cc3O2)cc1O (stereo not drawn) [Compound 10, hesperetin 7-β-glucoside]
inhibition at 1 µM [1, 3]: 45% | IC50 [2]: 318 ± 27 µM

Structure (SMILES): O=c1c(O)c(-c2ccc(O)cc2)oc2cc(O)cc(O)c12 [Kaempferol, reference compound]
inhibition at 1 µM [1, 3]: 80%

The remaining compounds from weak to strong by IC50 [2], led by results:

IC50 [2]: 510 ± 108 µM
Structure (SMILES): Cc1c(C)c2c(c(C)c1O)CC[C@@](C)(CCC[C@H](C)CCC[C@H](C)CCCC(C)C)O2 [Compound 6, α-tocopherol]
inhibition at 1 µM [1, 3]: 61%

IC50 [2]: 437 ± 76 µM
Structure (SMILES): COc1ccc([C@@H]2CC(=O)c3c(O)cc(O)cc3O2)cc1O [Compound 8, hesperetin]
inhibition at 1 µM [1, 3]: 38%

IC50 [2]: 392 ± 88 µM
Structure (SMILES): O=c1c(-c2ccc(O)cc2)coc2cc(O)ccc12 [Compound 1, daidzein]
inhibition at 1 µM [1, 3]: 58%

IC50 [2]: 355 ± 32 µM
Structure (SMILES): COc1ccc(C2CC(=O)c3c(O)cc(O)cc3O2)cc1OC1OC(CO)C(O)C(O)C1O (stereo not drawn) [Compound 9, hesperetin 3′-β-glucoside]
inhibition at 1 µM [1, 3]: 40%

IC50 [2]: 280 ± 33 µM
Structure (SMILES): O=c1c(-c2ccc(O)cc2)coc2cc(OC3OC(COC4OC(CO)C(O)C(O)C4O)C(O)C(O)C3O)ccc12 (stereo not drawn) [Compound 3, daidzein 7-β-gentiobioside]
inhibition at 1 µM [1, 3]: 67%

IC50 [2]: 176 ± 35 µM
Structure (SMILES): COc1ccc(C2CC(=O)c3c(O)cc(OC4OC(CO)C(O)C(O)C4O)cc3O2)cc1OC1OC(CO)C(O)C(O)C1O (stereo not drawn) [Compound 11, hesperetin 3′,7-β-diglucoside]
inhibition at 1 µM [1, 3]: 63%

IC50 [2]: 139 ± 14 µM
Structure (SMILES): COc1ccc(C2CC(=O)c3c(O)cc(OC4OC(COC5OC(CO)C(O)C(O)C5O)C(O)C(O)C4O)cc3O2)cc1O (stereo not drawn) [Compound 12, hesperetin 7-β-gentiobioside]
inhibition at 1 µM [1, 3]: 69%

IC50 [2]: 125 ± 41 µM
Structure (SMILES): O=c1c(-c2ccc(O[C@@H]3O[C@H](CO)[C@H](O)[C@H](O)[C@H]3O)cc2)coc2cc(O)ccc12 [Compound 4, daidzein 4′-β-galactoside]
inhibition at 1 µM [1, 3]: 70%
